From patent US20220282217A1, “COMPOSITIONS AND METHODS FOR PREPARING T CELL COMPOSITIONS AND USES THEREOF” (priority 2019, published 2022) come the findings set out here.

Each structure is given as a SMILES string. Where a SMILES comes first, the peptide text is derived from it.

The target in one assay is HLA-A02.01 (Homo sapiens, UniProt P04439, D140Y/D185E/D98H/E176V/E277Q/G131W/G231S/I119V/I121R/I166T/I218V/L300P/L318F/N151K/N90K/P208A/P217A/Q86G/Q94H/R138H/R169H/T345S). The assay is described as follows: Class I MHC peptide binding affinity (displacement of radiolabeled reference peptide). The conditions noted are these: Observed Affinity (IC50; (nM)), allele A02.01. On the procedure: In brief, MHCI complexes were prepared and bound to radiolabeled reference peptides. Peptides were incubated at varying concentrations with these complexes for 2 days, and the amount of remaining radiolabeled peptide bound to […] was measured using size exclusion gel-filtration.
Broadly, the IC50 is the concentration at which inhibition is half-maximal. `CC[C@H](C)[C@H](NC(=O)[C@H](CC(N)=O)NC(=O)[C@H](CCSC)NC(=O)[C@H](Cc1c[nH]cn1)NC(=O)[C@H](CC(N)=O)NC(=O)CNC(=O)[C@H](CC(C)C)NC(=O)[C@@H](N)Cc1ccc(O)cc1)C(=O)N[C@@H](C)C(=O)N[C@@H](CC(N)=O)C(=O)O` (H-YLGNHMNIAN-OH; N-terminus and C-terminus assumed) yielded an IC50 of 1340 nM.
Take `CC[C@H](C)[C@H](NC(=O)[C@H](CCCCN)NC(=O)[C@H](Cc1ccc(O)cc1)NC(=O)[C@@H](NC(=O)[C@@H](NC(=O)[C@H](CC(=O)O)NC(=O)[C@H](CO)NC(=O)[C@H](CCSC)NC(=O)[C@@H](N)C(C)C)[C@@H](C)O)[C@@H](C)O)C(=O)O` (H-VMSDTTYKI-OH; N-terminus and C-terminus assumed): the IC50 worked out at 19.6 nM.
For `CC[C@H](C)[C@H](NC(=O)[C@@H]1CCCN1C(=O)[C@H](CC(C)C)NC(=O)[C@H](CC(C)C)NC(=O)[C@H](CCC(=O)O)NC(=O)[C@@H](N)Cc1ccccc1)C(=O)N1CCC[C@H]1C(=O)N1CCC[C@H]1C(=O)N[C@@H](CC(C)C)C(=O)O` (H-FELLPIPPL-OH; N-terminus and C-terminus assumed), the IC50 amounted to 553 nM.
On the same count and under the same terms, the value for `CC[C@H](C)[C@H](NC(=O)[C@H](CCCCN)NC(=O)[C@H](Cc1ccc(O)cc1)NC(=O)[C@@H](NC(=O)[C@@H](NC(=O)[C@H](CC(=O)O)NC(=O)[C@H](CO)NC(=O)[C@H](CCSC)NC(=O)[C@@H](NC(=O)[C@@H](N)Cc1ccccc1)C(C)C)[C@@H](C)O)[C@@H](C)O)C(=O)O` (H-FVMSDTTYKI-OH; N-terminus and C-terminus assumed) was 62.4 nM.

The same assay, now with this note: allele A02.01; read-out: Observed Affinity (IC50; (nM)).
As for `CC(C)C[C@H](NC(=O)[C@@H]1CCCN1C(=O)[C@@H]1CCCN1C(=O)[C@@H](NC(=O)[C@H](CC(=O)O)NC(=O)[C@H](CCC(=O)O)NC(=O)[C@@H]1CCCN1C(=O)[C@H](CC(C)C)NC(=O)[C@@H](N)CC(C)C)[C@@H](C)O)C(=O)O` (H-LLPEDTPPL-OH; N-terminus and C-terminus assumed), the IC50 is 2.8 nM.
Still for that read-out and setting: then `CC[C@H](C)[C@H](NC(=O)[C@@H](NC(=O)[C@@H](N)CC(C)C)[C@@H](C)O)C(=O)N[C@@H](CC(N)=O)C(=O)N[C@@H](CCCCN)C(=O)N[C@@H](CCC(=O)O)C(=O)N[C@@H](CCC(=O)O)C(=O)N[C@@H](C)C(=O)N[C@@H](CC(C)C)C(=O)O` [LTINKEEAL], with 4410 nM.
The same measure, in the same setting: the value for `CC[C@H](C)[C@H](NC(=O)[C@H](CC(C)C)NC(=O)[C@@H]1CCCN1C(=O)[C@H](Cc1ccccc1)NC(=O)[C@H](CC(C)C)NC(=O)[C@H](CCC(=O)O)NC(=O)[C@@H]1CCCN1C(=O)CNC(=O)[C@@H](N)CCCCN)C(=O)O` (H-KGPELFPLI-OH) was 101 nM.
Same read-out and setting: the value for `CSCC[C@H](NC(=O)[C@H](CCCCN)NC(=O)CNC(=O)[C@H](CC(N)=O)NC(=O)[C@H](CCC(N)=O)NC(=O)[C@@H](N)Cc1ccccc1)C(=O)N[C@@H](C)C(=O)N[C@@H](CC(C)C)C(=O)N[C@@H](CO)C(=O)N[C@@H](C)C(=O)O` was 6160 nM; that for `CC(C)C[C@H](NC(=O)[C@H](Cc1ccccc1)NC(=O)[C@H](CO)NC(=O)[C@H](CC(C)C)NC(=O)[C@H](CS)NC(=O)[C@H](CO)NC(=O)[C@H](Cc1ccccc1)NC(=O)[C@H](CC(C)C)NC(=O)[C@H](CCCCN)NC(=O)[C@@H](N)Cc1ccccc1)C(=O)O` (H-FKLFSCLSFL-OH; N-terminus and C-terminus assumed) was 663 nM.
`CC(C)C[C@H](NC(=O)[C@H](C)N)C(=O)N[C@@H](CC(N)=O)C(=O)N[C@@H](CO)C(=O)N[C@@H](CCC(=O)O)C(=O)N[C@@H](C)C(=O)N[C@@H](CC(C)C)C(=O)N[C@@H](CO)C(=O)N[C@H](C(=O)N[C@H](C(=O)O)C(C)C)C(C)C`: the IC50 worked out at 15 nM.
Regarding `CC[C@H](C)[C@H](NC(=O)[C@@H]1CCCN1C(=O)[C@H](CCCNC(=N)N)NC(=O)[C@H](CCCNC(=N)N)NC(=O)[C@H](CC(N)=O)NC(=O)[C@H](CCSC)NC(=O)[C@H](CO)NC(=O)CNC(=O)[C@H](CCSC)NC(=O)[C@@H](N)CS)C(=O)O` (H-CMGSMNRRPI-OH; N-terminus and C-terminus assumed), the IC50 was 1990 nM.
Still for that read-out and setting: the value for `CC[C@H](C)[C@H](NC(=O)[C@H](Cc1ccc(O)cc1)NC(=O)[C@H](CC(C)C)NC(=O)[C@@H](N)CO)C(=O)N[C@H](C(=O)NCC(=O)N[C@@H](Cc1ccccc1)C(=O)N[C@@H](Cc1ccc(O)cc1)C(=O)NCC(=O)O)C(C)C` (H-SLYIVGFYG-OH; N-terminus and C-terminus assumed) was 1060 nM; that for `CC[C@H](C)[C@H](N)C(=O)N[C@H](C(=O)N[C@@H](CO)C(=O)N[C@@H](CCCNC(=N)N)C(=O)N[C@H](C(=O)N[C@@H](CC(C)C)C(=O)N[C@@H](CC(C)C)C(=O)N[C@@H](CC(C)C)C(=O)N[C@H](C(=O)O)C(C)C)[C@@H](C)O)C(C)C` (H-IVSRTLLLV-OH; N-terminus and C-terminus assumed) was 12.7 nM; that for `CC(C)C[C@H](NC(=O)[C@H](C)NC(=O)[C@@H](NC(=O)[C@@H]1CCCN1C(=O)[C@@H](NC(=O)[C@H](CS)NC(=O)[C@H](CO)NC(=O)[C@H](CO)NC(=O)[C@H](CC(C)C)NC(=O)[C@@H](N)CCCNC(=N)N)C(C)C)C(C)C)C(=O)O` [RLSSCVPVAL] (H-RLSSCVPVAL-OH; N-terminus and C-terminus assumed) was 54.2 nM.
On the same count and under the same terms, the value for `CC[C@H](C)[C@H](NC(=O)[C@@H](N)CC(C)C)C(=O)N[C@H](C(=O)N[C@@H](CO)C(=O)N[C@@H](CCCNC(=N)N)C(=O)N[C@H](C(=O)N[C@@H](CC(C)C)C(=O)N[C@@H](CC(C)C)C(=O)N[C@@H](CC(C)C)C(=O)N[C@H](C(=O)O)C(C)C)[C@@H](C)O)C(C)C` (H-LIVSRTLLLV-OH; N-terminus and C-terminus assumed) was 10900 nM; that for `CSCC[C@H](NC(=O)[C@H](CCCCN)NC(=O)CNC(=O)[C@H](CC(N)=O)NC(=O)[C@H](CCC(N)=O)NC(=O)[C@@H](N)Cc1ccccc1)C(=O)N[C@@H](C)C(=O)N[C@@H](CC(C)C)C(=O)N[C@@H](CO)C(=O)O` [FQNGKMALS] (H-FQNGKMALS-OH; N-terminus and C-terminus assumed) was 3280 nM.
Take `CC[C@H](C)[C@H](NC(=O)[C@@H]1CCCN1C(=O)[C@H](CCCNC(=N)N)NC(=O)[C@H](Cc1c[nH]cn1)NC(=O)[C@@H]1CCCN1C(=O)[C@H](CS)NC(=O)[C@H](CCCNC(=N)N)NC(=O)[C@H](CCC(=O)O)NC(=O)[C@H](CC(C)C)NC(=O)[C@@H](N)C(C)C)C(=O)O`: the IC50 worked out at 15300 nM.
On the same count and under the same terms, the value for `CC[C@H](C)[C@H](N)C(=O)N[C@H](C(=O)N[C@@H](C)C(=O)N[C@@H](Cc1ccccc1)C(=O)N[C@@H](Cc1ccccc1)C(=O)N[C@@H](Cc1ccccc1)C(=O)N[C@@H](CS)C(=O)N[C@@H](Cc1c[nH]c2ccccc12)C(=O)N[C@H](C(=O)O)[C@@H](C)CC)[C@@H](C)O` (H-ITAFFFCWI-OH; N-terminus and C-terminus assumed) was 7490 nM; that for `CC[C@H](C)[C@H](NC(=O)[C@@H](NC(=O)[C@H](CC(C)C)NC(=O)[C@@H](N)Cc1ccc(O)cc1)C(C)C)C(=O)N[C@@H](CCC(N)=O)C(=O)N[C@@H](CC(C)C)C(=O)N[C@@H](CCC(N)=O)C(=O)N[C@@H](CC(=O)O)C(=O)N[C@@H](CCCCN)C(=O)N[C@@H](Cc1ccccc1)C(=O)O` (H-YLVIQLQDKF-OH) was 2060 nM.
